Assay results taken from patent US6432405B1, “Method of inhibiting HIV infection with CD44 and anti-CD44 antibodies” (Duke University, priority 1991, dated 2002).
“Also recorded” adds a separate entry of the source.

Experiments:
HIV-1Ba.L = experiment: HIV-1 infection of human monocytes in vitro (cytopathology/polykaryon formation, supernatant reverse transcriptase); assay type: cell-based; conditions: for effect on HIV-1-induced cytopathology and supernatant RT (in words): human monocytes inoculated with HIV-1Ba.L, three weeks of culture
From the text: This aspect of the present invention provides a new method, based on a separate molecular pathway, of blocking HIV infection. The invention is based, at least in part, on Applicants' observation that CD44 (the hyaluronate receptor) facilitates HIV infection/expression in human cells. When this molecule is “blocked”by binding to the anti-CD44 antibody […] or AlG3, there is a 40-80% reduction of HIV infection/expression in normal human monocytes in vitro, as determined by inhibition of monocyte polykaryon formation and expression of viral reverse transcriptase in supernatant medium. […] To determine the importance of other monocyte cellular surface molecules in in vitro infection with HIV-1, the abilities of various murine monoclonal antibodies directed toward different monocyte membrane antigens to influence HIV-1 infection of human monocytes in vitro were determined. Monocytes from normal people were isolated by density gradients, adherence, and washing. Cells were inoculated with HIV-1Ba.L. […] three weeks of culture for reverse transcriptase (RT) activity, and the plates were examined morphologically. Antibodies AlG3 and […]

PBMC (T cells) = experiment: T cell activation assay: CD2 mAb-stimulated PBMC proliferation; assay type: cell-based, human; conditions: compared to the results with CD44 liposomes; data not shown
Protocol: CD44 (A3D8) and control YgGl (P3X63/Ag8) antibodies were conjugated to CNBr-activated SEPHAROSE CL 4B (Pharmacia, Piscataway, N.J.) (3.0 mg IgG/ml gel). HuT 78 T Cell (CD44+) lysate was solubilized from 5×10^9 cells in 50 ml buffer (300 mM NaCl, 10 mM Na2HPO4 pH 7.4, 0.2% NaN3w/v 0.5% NP-40 v/v), 0.01% Tween 80 w/v, 0.2 mM phenylmethylsulfonyl fluoride, and 0.1 mM tosyl L-lysine chloromethyl ketone) (0° C.×30 min), centrifuged (4° C. 3000×g×15 min, 23420 ×g×30 min) filtered, precleared×2 over a P3-SEPHAROSE column, and allowed to bind overnight (4° C.) to A3D8-SEPHAROSE. The column was washed with 5 column volumes equilibration buffer, followed by 5 column volumes of 50 mM Tris, pH 7.4, 0.5% NP-40. NP-40 was exchanged for octyl glucoside (OG) (Sigma, St. Louis, Mo.) by washing with 2 column volumes 50 mM Tris pH 7.4, 1.5% OG w/v. […]
Liposomes were prepared by the method of Mimms et al ((1981) Biochemistry 20:833-840), using 1 μM purified CD44 or control glycophorin protein, 1 nM L-α-dioleoyl lecthin (Avanti Polar Lipids, Birmingham, Ala.), and 240 nM OG. Liposomes were analyzed for content of the appropriate protein using a novel labelling technique and flow cytometry. […] Fluoresceinated liposome-bead conjugates were then analyzed by flow cytometry. […]

Substance | effect on HIV-1-induced cytopathology and supernatant RT (in words) (HIV-1Ba.L) | reduction/inhibition of HIV infection/expression (HIV-1Ba.L; normal human monocytes in vitro, by inhibition of monocyte polykaryon formation and viral reverse transcriptase in supernatant medium) | effect on CD2 stimulated PBMC cultures (in words) (PBMC (T cells))
Chondroitin sulfate | no effect; also recorded: no or minimal inhibitory activity | – | –
hyaluronic acid [hyaluronate] | diminished morphological changes and RT expression | up to 85% | –
soluble, free CD44 protein: CD44 protein affinity-purified from HuT 78 T cell lysate on A3D8-Sepharose, 80-85 kD | – | – | Identical results
